Data as given in patent US20130029928A1 (priority 2010, published 2013).
Read-outs that look alike come from different tables or passages of the source.

Experiment: Phase I study CXR1002-001: plasma pharmacokinetics (LC-MS/MS)
Type: in vivo, human
Details: for concentration at 528 hr / concentration at 528 h: Time 528 hr (Day 23); for concentration at 672 hr / concentration at 672 h: Time 672 hr (Day 29); for concentration at 696 hr / concentration at 696 h: Time 696 hr (Day 30); for concentration at 840 hr / concentration at 840 h: Time 840 hr (Day 36); for concentration at 864 hr / concentration at 864 h: Time 864 hr (Day 37); for concentration at 24 hr / concentration at 24 h: Time 24 hr (Day 2); for concentration at 168 hr / concentration at 168 h: Time 168 hr (Day 8); for concentration at 336 hr / concentration at 336 h: Time 336 hr (Day 15); for concentration at 360 hr / concentration at 360 h: Time 360 hr (Day 16)
Text: PK samples, PD (fasting) samples, blood glucose, and blood triglyceride samples, were taken over a 6-week period.
Dose limiting toxicity (DLT) will be based on the toxicity assessments over the first 3-week period of the repeat dosing schedule. PK samples (single blood sample) were taken on the following basis: • Every 6 weeks during the repeat dosing phase • If dosing is interrupted or stopped, samples will be taken at intervals according to patient convenience • PK sampling for safety evaluation may take place at any time, as clinically indicated
Plasma samples were collected after the single 50 mg dose at the following timepoints: Pre-dose, and then 0.25, 0.5, 0.75, 1, 1.5, 2, 3, 4, 6, 24, 48, and 72 hours after administration and then once weekly at weeks 2, 3, 4, 5, and 6 (days 8, 15, 22, 29, and 36). For patients treated with the weekly repeat dose, plasma samples were collected at the following timepoints: Pre-dose and then 2, 3, 4 and 24 hours after administration for a total of 6 weeks. Thereafter a single sample was collected every 6 weeks for monitoring of exposure during long term treatment. Plasma samples were processed at site and stored at −80° C. prior to batch shipment to the analytical laboratory.

[1] = human, plasma, po, 1000 mg, Patient 041, 1000 mg weekly oral dose, read-out: Concentration (plasma level)
[2] = human, plasma, po, 1000 mg, Patient 042, 1000 mg weekly oral dose, read-out: Concentration (plasma level)
[3] = human, plasma, po, 1200 mg, Patient 036, 1200 mg weekly oral dose, read-out: Concentration (plasma level)
[4] = human, plasma, po, 1200 mg, Patient 037, 1200 mg weekly oral dose, read-out: Concentration (plasma level)
[5] = human, plasma, po, 1200 mg, Patient 038, 1200 mg weekly oral dose, read-out: Concentration (plasma level)

Q: What does the source list for `O=C(O)C(F)(F)C(F)(F)C(F)(F)C(F)(F)C(F)(F)C(F)(F)C(F)(F)F` [CXR1002]?
A: concentration at 528 hr [1]: 703 µM; concentration at 672 hr [1]: 670 µM; concentration at 674 hr [1]: 546 µM; concentration at 675 hr [1]: 740 µM; concentration at 676 hr (human, plasma, po, 1000 mg, Patient 041, 1000 mg weekly oral dose, Time 676 hr, read-out: Concentration (plasma level)): 802 µM; concentration at 696 hr [1]: 786 µM; concentration at 840 hr [1]: 715 µM; concentration at 842 hr [1]: 738 µM; concentration at 843 hr (human, plasma, po, 1000 mg, Patient 041, 1000 mg weekly oral dose, Time 843 hr, read-out: Concentration (plasma level)): 1010 µM; concentration at 864 hr [1]: 1210 µM; concentration at 2 hr [2]: 272 µM; concentration at 3 hr [2]: 359 µM; concentration at 4 hr [2]: 281 µM; concentration at 24 hr [2]: 239 µM; concentration at 168 hr [2]: 251 µM; concentration at 170 hr (human, plasma, po, 1000 mg, Patient 042, 1000 mg weekly oral dose, Time 170 hr, read-out: Concentration (plasma level)): 391 µM; concentration at 171 hr (human, plasma, po, 1000 mg, Patient 042, 1000 mg weekly oral dose, Time 171 hr, read-out: Concentration (plasma level)): 461 µM; concentration at 172 hr (human, plasma, po, 1000 mg, Patient 042, 1000 mg weekly oral dose, Time 172 hr, read-out: Concentration (plasma level)): 436 µM; concentration at 192 hr (human, plasma, po, 1000 mg, Patient 042, 1000 mg weekly oral dose, Time 192 hr (Day 9), read-out: Concentration (plasma level)): 502 µM; concentration at 336 hr [2]: 586 µM; concentration at 338 hr [2]: 645 µM; concentration at 339 hr [2]: 675 µM; concentration at 340 hr [2]: 636 µM; concentration at 360 hr [2]: 651 µM; concentration at 504 hr (human, plasma, po, 1000 mg, Patient 042, 1000 mg weekly oral dose, Time 504 hr (Day 22), read-out: Concentration (plasma level)): 765 µM; concentration at 506 hr (human, plasma, po, 1000 mg, Patient 042, 1000 mg weekly oral dose, Time 506 hr, read-out: Concentration (plasma level)): 872 µM; concentration at 507 hr (human, plasma, po, 1000 mg, Patient 042, 1000 mg weekly oral dose, Time 507 hr, read-out: Concentration (plasma level)): 952 µM; concentration at 508 hr (human, plasma, po, 1000 mg, Patient 042, 1000 mg weekly oral dose, Time 508 hr, read-out: Concentration (plasma level)): 987 µM; concentration at 528 hr [2]: 1230 µM; concentration at 672 hr [2]: 1040 µM; concentration at 674 hr [2]: 1180 µM; concentration at 675 hr [2]: 1190 µM; concentration at 696 hr [2]: 1280 µM; concentration at 840 hr [2]: 1250 µM; concentration at 842 hr [2]: 1140 µM; concentration at 843 hr (human, plasma, po, 1000 mg, Patient 042, 1000 mg weekly oral dose, Time 843 hr, read-out: Concentration (plasma level)): 1180 µM; concentration at 844 hr (human, plasma, po, 1000 mg, Patient 042, 1000 mg weekly oral dose, Time 844 hr, read-out: Concentration (plasma level)): 1160 µM; concentration at 864 hr [2]: 1250 µM; concentration at 2 hr [3]: 443 µM; concentration at 3 hr [3]: 431 µM; concentration at 4 hr [3]: 361 µM; concentration at 24 hr [3]: 708 µM; concentration at 168 hr [3]: 286 µM; concentration at 170 h (human, plasma, po, 1200 mg, Patient 036, 1200 mg weekly oral dose, Time 170 hr, read-out: Concentration (plasma level)): 680 µM; concentration at 171 h (human, plasma, po, 1200 mg, Patient 036, 1200 mg weekly oral dose, Time 171 hr, read-out: Concentration (plasma level)): 678 µM; concentration at 172 h (human, plasma, po, 1200 mg, Patient 036, 1200 mg weekly oral dose, Time 172 hr, read-out: Concentration (plasma level)): 665 µM; concentration at 192 h (human, plasma, po, 1200 mg, Patient 036, 1200 mg weekly oral dose, Time 192 hr (Day 9), read-out: Concentration (plasma level)): 295 µM; concentration at 336 hr [3]: 557 µM; concentration at 338 hr [3]: 840 µM; concentration at 339 hr [3]: 866 µM; concentration at 340 hr [3]: 930 µM; concentration at 360 hr [3]: 657 µM; concentration at 504 h (human, plasma, po, 1200 mg, Patient 036, 1200 mg weekly oral dose, Time 504 hr (Day 22), read-out: Concentration (plasma level)): 969 µM; concentration at 506 h (human, plasma, po, 1200 mg, Patient 036, 1200 mg weekly oral dose, Time 506 hr, read-out: Concentration (plasma level)): 1140 µM; concentration at 507 h (human, plasma, po, 1200 mg, Patient 036, 1200 mg weekly oral dose, Time 507 hr, read-out: Concentration (plasma level)): 1130 µM; concentration at 508 h (human, plasma, po, 1200 mg, Patient 036, 1200 mg weekly oral dose, Time 508 hr, read-out: Concentration (plasma level)): 1120 µM; concentration at 840 h [3]: 948 µM; concentration at 842 h [3]: 1250 µM; concentration at 844 h (human, plasma, po, 1200 mg, Patient 036, 1200 mg weekly oral dose, Time 844 hr, read-out: Concentration (plasma level)): 1230 µM; concentration at 864 h [3]: 1060 µM; concentration at 2 h [4]: 256 µM; concentration at 3 h [4]: 302 µM; concentration at 4 h [4]: 278 µM; concentration at 24 h [4]: 418 µM; concentration at 168 h [4]: 422 µM; concentration at 170 h (human, plasma, po, 1200 mg, Patient 037, 1200 mg weekly oral dose, Time 170 hr, read-out: Concentration (plasma level)): 634 µM; concentration at 171 h (human, plasma, po, 1200 mg, Patient 037, 1200 mg weekly oral dose, Time 171 hr, read-out: Concentration (plasma level)): 660 µM; concentration at 172 h (human, plasma, po, 1200 mg, Patient 037, 1200 mg weekly oral dose, Time 172 hr, read-out: Concentration (plasma level)): 712 µM; concentration at 192 h (human, plasma, po, 1200 mg, Patient 037, 1200 mg weekly oral dose, Time 192 hr (Day 9), read-out: Concentration (plasma level)): 841 µM; concentration at 336 h [4]: 780 µM; concentration at 338 h [4]: 1050 µM; concentration at 339 h [4]: 1040 µM; concentration at 340 h [4]: 1030 µM; concentration at 360 h [4]: 1140 µM; concentration at 504 h (human, plasma, po, 1200 mg, Patient 037, 1200 mg weekly oral dose, Time 504 hr (Day 22), read-out: Concentration (plasma level)): 1100 µM; concentration at 506 h (human, plasma, po, 1200 mg, Patient 037, 1200 mg weekly oral dose, Time 506 hr, read-out: Concentration (plasma level)): 1200 µM; concentration at 507 h (human, plasma, po, 1200 mg, Patient 037, 1200 mg weekly oral dose, Time 507 hr, read-out: Concentration (plasma level)): 1220 µM; concentration at 508 h (human, plasma, po, 1200 mg, Patient 037, 1200 mg weekly oral dose, Time 508 hr, read-out: Concentration (plasma level)): 1390 µM; concentration at 528 h [4]: 1390 µM; concentration at 672 h [4]: 1320 µM; concentration at 674 h [4]: 1460 µM; concentration at 675 h [4]: 1460 µM; concentration at 676 h (human, plasma, po, 1200 mg, Patient 037, 1200 mg weekly oral dose, Time 676 hr, read-out: Concentration (plasma level)): 1450 µM; concentration at 696 h [4]: 1530 µM; concentration at 2 h [5]: 313 µM; concentration at 3 h [5]: 314 µM; concentration at 4 h [5]: 298 µM; concentration at 24 h [5]: 242 µM; concentration at 168 h [5]: 268 µM; concentration at 170 h (human, plasma, po, 1200 mg, Patient 038, 1200 mg weekly oral dose, Time 170 hr, read-out: Concentration (plasma level)): 502 µM; concentration at 171 h (human, plasma, po, 1200 mg, Patient 038, 1200 mg weekly oral dose, Time 171 hr, read-out: Concentration (plasma level)): 481 µM; concentration at 172 h (human, plasma, po, 1200 mg, Patient 038, 1200 mg weekly oral dose, Time 172 hr, read-out: Concentration (plasma level)): 538 µM; concentration at 192 h (human, plasma, po, 1200 mg, Patient 038, 1200 mg weekly oral dose, Time 192 hr (Day 9), read-out: Concentration (plasma level)): 493 µM; concentration at 336 h [5]: 462 µM; concentration at 338 h [5]: 808 µM; concentration at 339 h [5]: 682 µM; concentration at 340 h [5]: 672 µM; concentration at 360 h [5]: 749 µM; concentration at 504 h (human, plasma, po, 1200 mg, Patient 038, 1200 mg weekly oral dose, Time 504 hr (Day 22), read-out: Concentration (plasma level)): 566 µM; concentration at 506 h (human, plasma, po, 1200 mg, Patient 038, 1200 mg weekly oral dose, Time 506 hr, read-out: Concentration (plasma level)): 658 µM; concentration at 507 h (human, plasma, po, 1200 mg, Patient 038, 1200 mg weekly oral dose, Time 507 hr, read-out: Concentration (plasma level)): 788 µM; concentration at 508 h (human, plasma, po, 1200 mg, Patient 038, 1200 mg weekly oral dose, Time 508 hr, read-out: Concentration (plasma level)): 699 µM; concentration at 528 h [5]: 746 µM; concentration at 672 h [5]: 682 µM; concentration at 674 h [5]: 932 µM; concentration at 675 h [5]: 885 µM; concentration at 676 h (human, plasma, po, 1200 mg, Patient 038, 1200 mg weekly oral dose, Time 676 hr, read-out: Concentration (plasma level)): 708 µM; concentration at 696 h [5]: 802 µM; concentration at 840 h [5]: 687 µM; concentration at 842 h [5]: 895 µM; concentration at 843 h (human, plasma, po, 1200 mg, Patient 038, 1200 mg weekly oral dose, Time 843 hr, read-out: Concentration (plasma level)): 955 µM; concentration at 844 h (human, plasma, po, 1200 mg, Patient 038, 1200 mg weekly oral dose, Time 844 hr, read-out: Concentration (plasma level)): 914 µM; concentration at 864 h [5]: 958 µM; gender difference in exposure (in vivo): no gender difference; accumulation (weekly dose): accumulates; maximal blood level reached (weekly repeat dose (Pharmacokinetic Summary)): 617 µM
